Experimental data from patent publication US20040176321A1, “Compositions of benzoquinolizine carboxylic acid antibiotic drugs” (priority 2002, published 2004).

Assays:
[1] = Solubility study with β-cyclodextrin and hydroxypropyl β-cyclodextrin; format: physicochemical; details: ca. 24 hours, 27° C.
Procedure: The flasks were kept ca. 24 hours on a mechanical shaker, maintained at 27° C. and 140 rpm. The solutions were filtered through 0.2 micron syringe filter. The filtrates were diluted appropriately and injected on HPLC. The amounts dissolved were determined by comparing the sample peak area with peak area of standard solution.

[2] = Solubility at ambient temperature (in water); format: physicochemical
pKa value = format: physicochemical
Wistar rats = details: rat, in vivo, iv
Procedure: Wistar rats of body weight range 90-100 gm were treated with i.v. administered above test compositions in doses specified in the table below for a period of 7 days to 28 days. The test doses were administered by injecting 0.5 ml-1.0 ml of test compositions via tail vein of each rat with the help of graduated 1 ml disposable syringe fitted with 26½ G needle. Each repeat dose was administered in 5 male and 5 female rats. Animals were monitored for the induction of phlebitis or its progression to complete venous blockade.

Row | Compound | amount dissolved with HP-β-CD ([1]; HP-β-CD 0 mg/ml) [mg/mL] | amount dissolved with HP-β-CD ([1]; HP-β-CD 2 mg/ml) [mg/mL] | amount dissolved with HP-β-CD ([1]; HP-β-CD 5 mg/ml) [mg/mL] | amount dissolved with HP-β-CD ([1]; HP-β-CD 10 mg/ml) [mg/mL] | amount dissolved with HP-β-CD ([1]; HP-β-CD 50 mg/ml) [mg/mL] | amount dissolved with β-CD ([1]; β-CD 0 mg/ml) [mg/mL] | amount dissolved with β-CD ([1]; β-CD 5 mg/ml) [mg/mL] | amount dissolved with β-CD ([1]; β-CD 10 mg/ml) [mg/mL] | amount dissolved with β-CD ([1]; β-CD 2 mg/ml) [mg/mL] | solubility [2] [µg/mL] | pKa (pKa value) | venous tolerability (Wistar rats)
1 | C[C@@H]1CCc2c(N3CCC(O)CC3)c(F)cc3c(=O)c(C(=O)O)cn1c23 [Substance D, R-(+)-9-fluoro-6,7-dihydro-8-(4-hydroxypiperidin-1-yl)-5-methyl-1-oxo-1H,5H-benzo[I,j]quinolizine-2-carboxylic acid] | 0.15 | 0.37 | 0.50 | 1.08 | 5.01 | 0.15 | 0.71 |  |  |  |  | 
2 | CC1CCc2c(N3CCC(O)CC3)c(F)cc3c(=O)c(C(=O)O)cn1c23 (racemic) [Substance C, RS-(±)-9-fluoro-6,7-dihydro-8-(4-hydroxypiperidin-1-yl)-5-methyl-1-oxo-1H,5H-benzo[I,j]quinolizine-2-carboxylic acid] | 0.03 | 0.05 | 0.11 | 0.31 | 1.03 | 0.03 | 0.22 | 0.40 |  |  |  | 
3 | C[C@H]1CCc2c(N3CCC(O)CC3)c(F)cc3c(=O)c(C(=O)O)cn1c23 [Substance A, S-(−)-9-fluoro-6,7-dihydro-8-(4-hydroxypiperidin-1-yl)-5-methyl-1-oxo-1H,5H-benzo[I,j]quinolizine-2-carboxylic acid] | 0.04 | 0.21 | 0.28 | 0.55 | 2.67 | 0.04 | 0.27 | 0.53 | 0.12 | < 1500 | 6.8 | 
4 | C[C@H]1CCc2c(N3CCC(O)CC3)c(F)cc3c(=O)c(C(=O)O)cn1c23.N=C(N)NCCC[C@H](N)C(=O)O [Substance B, S-(−)-9-fluoro-6,7-dihydro-8-(4-hydroxypiperidin-1-yl)-5-methyl-1-oxo-1H,5H-benzo[I,j]quinolizine-2-carboxylic acid arginine salt] |  |  |  |  |  |  |  |  |  |  |  | superior venous tolerability
